US11203598B2, “Compounds for repressing cancer cell growth” (Institute For Cancer Research, priority 2018, dated 2021)

Legend:
Type in all cases: cell-based, human
[1] = system: p53 reporter (PG13-luc) in SW480 cells; assay: luciferase-based p53-reporter activity assay
Protocol: High-throughput screening was performed using a non-invasive bioluminescence imaging in human colorectal cancer cell lines that stably express a p53-regulated luciferase reporter. Cells were seeded in 96-well plates (Greiner Bio-One) at a density of 1×10^4 cells per well. p53 transcriptional activity was imaged using an IVIS imaging system for a period of 3-4 hours.
Cell-based screening of p53 transcriptional activity for small molecule CB002 was accomplished using noninvasive bioluminescence imaging in human colorectal cancer cell lines SW480, DLD-1, DLD-1 p73^−/−, HCT116, and HCT116 p53^−/−. These cell lines stably express a p53 reporter, PG13-luc. Cells were seeded in opaque 96-well culture at a density of 5×10^4 cells/well. The cells were treated with CB002 at ranging doses with DMSO controls. Bioluminescence in cells was imaged for p53 transcriptional activity at 2 hours and 24 hours using IVIS imaging system (Xenogen).
In order to identify small molecules that could restore the p53 signaling pathway, 50,000 small molecules from the Chembridge Library were screened using a firefly luciferase human p53 reporter assay system. SW480 colorectal cancer cells that stably express the human p53 reporter were treated with compounds at various concentrations from 0-100 μM for 2 and 24 hours. […] To further validate the effects of CB002, the screening was expanded by testing effects on p53-dependent reporter activity in DLD-1, wild-type HCT116, and p53-null colorectal cancer HCT116 cell lines. […] Referring to FIG. 1, representative images of luciferase-based p53-reporter activity assays are shown at 3 hours (Panel A). Quantification of the luciferase-based p53-reporter activity assays in three different cell lines incubated from 3-24 hours with CB002 are shown (Panels B-D). p53-reporter activity assays are shown at 2 hours for HCT116 p53-null cells (Panel E).

[2] = system: HCT116 cells; assay: FACS sub-G1 analysis; details: 72 hours, dose dependent, over untreated controls
Protocol: (§1) Cells were seeded out at 1×10^6 cells/well on six well plates and treated with CB002 and Analog 11 at ranging doses with DMSO controls. Cells were harvested after 72 hours of treatment, all cells including floating cells were fixed with ethanol and stained with Propidium Iodide and then analyzed using Epics Elite flow cytometer to measure the DNA content of the stained cells.

[3] = system: HCT116 p53-null cells; assay: FACS sub-G1 analysis; details: 72 hours, dose dependent, over untreated controls
Protocol: as §1

[4] = system: p53 pathway proteins in SW480 cells; assay: Western blot of p53, p53 targets, apoptosis and autophagy markers; details: for Noxa expression: 24 hour, 100 μM CB002, 25 NM Analog 4, 100 μM Analog 11; for mutant p53 protein level: varying doses, anti-p53 (DO-1)
Protocol: (§2) After treatment, cells were harvested by trypsinization, washed with PBS, and lysed with RIPA buffer (Sigma-Aldrich) for 30 minutes to 1 hour at 4° C. Protein lysates were spun down and supernatant was collected. Protein quantification was performed using a Pierce™ BCA Protein Assay Kit (Thermo Fisher Scientific). 1×NuPAGE® LDS sample buffer (Thermo Fisher Scientific) and 2-Mercaptoethanol as the reducing agent (Sigma-Aldrich) were added to protein lysates, followed by boiling for 15 minutes at 95° C. Equal total protein amounts samples were loaded into NuPAGE™ Novex™ 4-12% Bis-Tris Protein Gels (1.5 mm, Thermo Fisher Scientific) and gel eletrophoresis was performed with NuPAGE™ MES SDS Running Buffer. Proteins were transferred onto an Immobilon-P membrane (PVDF, EMD Millipore) using a Bio-Rad system with a 10% Tris-Glycine and 10% methanol transfer buffer diluted in distilled and deionized water. After transfer, membranes were blocked with 10% milk in TBST solution and then incubated overnight with primary antibody, washed with TBST and incubated with secondary antibody for 1 hour. Incubations were performed in 5% milk in TBST solution. Signal was detected by using a chemiluminescent detection kit, followed by autoradiography. The following antibodies were used: p53 (DO-1, 1:1000, Santa Cruz), p73 (1:1000, Bethyl Laboratories), p21 and NOXA (1:250, EMD Millipore), DR5, FADD, cleaved caspase 3, cleaved caspase 8, cleaved PARP, and LC3B (1:1000, Cell Signaling), and β-actin (1:10000, Sigma).
(§3) Proteins were isolated using NP40 Lysis Buffer (20 mmol/L Tris-HCl (pH 7.4), 150 mmol/L NaCl, 5 mmol/L EDTA, 50 mmol/L NaF, 1 mmol/L glycerophosphate, 5 mmol/L Na4P2O7, 0.5% NP40, and complete protease inhibitor cocktail (Roche)) and electrophoresed through 4-12% SDS-PAGE followed by semi-dry transfer to PVDF membranes. The PVDF membranes were incubated with different antibodies including p21 (OP64-100UG, EMD Millipore (world wide web at emdmillipore.com/US/en/product/Antip21WAF1-(Ab-1)-Mouse-mAb-(EA10), EMD_BIO-OP64)), PUMA (12450S, Cell Signaling Technology, world wide web at cellsignal.com/products/primary-antibodies/puma-d30c10-rabbit-mab/12450), DR5 (3696S, Cell Signaling Technology, world wide web at cellsignal.com/products/primary-antibodies/dr5-antibody/3696?N=4294956287&Ntt=3696s&fromPage=plp& requestid=541668), p53(sc-126, Santa Cruz, world wide web at scbt.com/scbt/fr/product/p53-antibody-do-1), and RAN (610341, BD Transduction Laboratories, world wide web at bdbiosciences.com/us/reagents/research/antibodies-buffers/cell-biologyreagents/cell-biology-antibodies/purified-mouse-anti-ran-20ran/p/610341) in blocking buffer at 4° C. overnight. Bound antibody will be detected using IRDye secondary antibodies (LI-COR Biosciences,) in Odyssey blocking buffer for 1 hour then imaged using the ODYSSEY infrared imaging system.

[5] = system: wild-type p53 and p53 targets in HCT116 cells; assay: Western blot of p53 and p53 targets; details: for wild-type p53 protein level: 24 hours, increasing dose
Protocol: as §2, §3

[6] = system: p53 pathway proteins in p73 knockdown DLD-1 cells; assay: Western blot of p53 targets; details: for p21 expression: 8 and 24 hours
Protocol: as §2, §3

[7] = system: p53 targets in HCT116 p53-null cells; assay: Western blot of p53 targets
Protocol: as §2, §3

[8] = system: SW480 cells; assay: CellTiter-Glo luminescent cell viability assay; details: 24 hours

SMILES | sub-G1 fraction [2] | sub-G1 fraction [3] | Noxa expression [4] | mutant p53 protein level ([4]; 24 hours) | p21 protein level ([5]; 8 and 24 hours) | wild-type p53 protein level [5] | p21 expression [6] | PUMA expression ([6]; 8 hours, over control) | PUMA expression ([6]; 24 hours) | p21 protein level ([7]; 8 hours) | p21 protein level ([7]; 24 hours) | also measured
Cn1c(=O)c2[nH]c(Nc3ccccc3)nc2n(C)c1=O [CB002, 8-anilino-1,3-dimethyl-3,7-dihydro-1H-purine-2,6-dione] | increased cells in sub-G1 fraction | increased cells in sub-G1 fraction | Induction of Noxa expression | decrease significantly | increase moderately in a dose dependent fashion | moderate increase in wild-type p53 | absent | increased expression | largely unchanged from control | increase moderately | no consistent difference | p53 luciferase reporter activity ([1]; 0-100 μM, 2 and 24 hours): activating the luciferase reporter in a dose-dependent manner; Noxa protein expression ([4]; 50 μM and 96 μM): increased; expression of p21 and DR5 ([4]; 12, 25, and 50 μM, 16 hours): increase the expression; p53 protein expression level (mutant p53) ([4]; 12, 25, and 50 μM, 16 hours, versus DMSO): constant p53 protein expression levels; cleaved PARP expression ([4]; 12, 25, and 50 μM, versus vehicle): observed to increase; LC3B expression (autophagy marker) ([4]; 50 and 96 μM): induce the expression of LC3B; cleaved caspase 3 and cleaved PARP expression ([4]; DR5 siRNA knockdown, 50 and 96 μM): continued to induce the expression; cleaved PARP expression ([4]; FADD knockdown cells, 24 hours): able to induce the expression of cleaved PARP; LC3B expression ([4]; NOXA knock-down cells, 50 and 96 μM): failed to induce LC3B expression; c-caspase 3 and cleaved PARP expression ([4]; NOXA shRNA knockdown, 50 and 96 μM): did not induce the expression of apoptotic markers; PARP cleavage ([4]; atg5 siRNA knockdown, 16 and 24 hours): complete loss of PARP cleavage; cleaved caspase 8 and cleaved PARP ([4]; combination with 50 μM chloroquine, 24 hours): reduced compared to CB002 alone; expression of p21, DR5 and PARP cleavage ([4]; p73 siRNA knockdown cells): increase the expression of p53 target genes p21 and DR5, and associated PARP cleavage; wild-type p53 expression ([5]; 50 and 100 μM): unable to decrease the expression of wild-type p53; combination index with Ganetespib ([8]; 0-20 μM Ganetespib with 0-200 μM CB002, CompuSyn): synergizes with Ganetespib
Cn1c(=O)c2c(nc(Nc3ccccc3)n2C)n(C)c1=O [Analog 11, 8-anilino-1,3,7-trimethyl-3,7-dihydro-1Hpurine-2,6-dione] | increased cells in sub-G1 fraction | increased cells in sub-G1 fraction | Induction of Noxa expression | decrease moderately | increase moderately in a dose dependent fashion | moderate increase in wild-type p53 | absent | increased expression | reduction in PUMA | increase moderately | no consistent difference | p53 responsive bioluminescence ([1]; 0 to 20 μmol/L): increased p53 responsive bioluminescence in a dose dependent manner; PUMA expression ([5]; 8 and 24 hours): increase only at 24 hours; PUMA protein level ([7]; 8 hours, 25 μmol/L and 50 μmol/L): appeared to increase; PUMA protein level ([7]; 24 hours): slight decrease; combination index with Irinotecan ([8]; 0-100 μM Irinotecan with 0-200 μM Analog 11, CompuSyn): synergizes with Irinotecan
